Data from patent US20230398130A1, “METHODS AND COMPOSITIONS FOR DIFFERENTIATING STEM CELLS” (Massachusetts Institute of Technology, priority 2020, published 2023).

Legend:
[1] = system: ISC-enriched organoids; assay: Primary screen, 384-well 2.5-D organoid differentiation (ENR+CD, 6 days): basal lysozyme secretion (LYZ.NS); format: cell-based, murine; conditions: for Dose.FC.LYZ.NS: FC vs plate median; for Z.LYZ.NS: standard z score of FC; for Dose.FC.LYZ.NS (log 2 fold change, basal lysozyme secretion): vs plate median
Description: (§1) High-throughput screening.

[2] = system: ISC-enriched organoids; assay: Primary screen, 384-well 2.5-D organoid differentiation (ENR+CD, 6 days): carbachol-induced lysozyme secretion (LYZ.S); format: cell-based, murine; conditions: for Dose.FC.LYZ.S: primary screen, FC vs plate median; for Dose.FC.LYZ.S (log 2 fold change, carbachol-induced lysozyme secretion): vs plate median
Description: as §1

[3] = system: ISC-enriched organoids; assay: Primary screen, 384-well 2.5-D organoid differentiation (ENR+CD, 6 days, Target Selective Inhibitor Library, vs whole-plate median): ATP (CellTiter-Glo 3D, CTG); conditions: for Dose.FC.CTG: FC vs plate median; for Z.CTG: standard z score of FC; for Dose.FC.CTG (log 2 fold change, ATP): vs plate median
[4] = primary screen, dose 0.08 uM, ENR+CD 6 days
[5] = primary screen, dose 0.40 uM, ENR+CD 6 days
[6] = primary screen, dose 2.00 uM, ENR+CD 6 days
[7] = primary screen, dose 10.00 uM, ENR+CD 6 days

SMILES: FC(F)(F)c1ccc(/C=C/c2nc(COc3ccc(CCCCn4ccnn4)cc3)co2)cc1 [Mubritinib (TAK 165)]
- Dose.FC.LYZ.NS ([1]; Dose 0.08 uM, primary screen): −0.057 log 2 fold change
- Z.LYZ.NS ([1]; Dose 0.08 uM): −0.500
- Dose.FC.LYZ.NS ([1]; Dose 0.40 uM, primary screen): −0.194 log 2 fold change
- Z.LYZ.NS ([1]; Dose 0.40 uM): −1.687
- Dose.FC.LYZ.NS ([1]; Dose 2.00 uM, primary screen): −0.224 log 2 fold change
- Z.LYZ.NS ([1]; Dose 2.00 uM): −1.950
- Dose.FC.LYZ.NS ([1]; Dose 10.00 uM, primary screen): −0.240 log 2 fold change
- Z.LYZ.NS ([1]; Dose 10.00 uM): −2.092
- Dose.FC.LYZ.S ([2]; Dose 0.08 uM): −0.119 log 2 fold change
- Dose.FC.LYZ.S ([2]; Dose 0.40 uM): −0.154 log 2 fold change
- Dose.FC.LYZ.S ([2]; Dose 2.00 uM): −0.299 log 2 fold change
- Dose.FC.LYZ.S ([2]; Dose 10.00 uM): −0.294 log 2 fold change
- Dose.FC.CTG ([3]; Dose 0.08 uM, primary screen): −0.524 log 2 fold change
- Z.CTG ([3]; Dose 0.08 uM): −1.252
- Dose.FC.CTG ([3]; Dose 0.40 uM, primary screen): −0.340 log 2 fold change
- Z.CTG ([3]; Dose 0.40 uM): −0.812
- Dose.FC.CTG ([3]; Dose 2.00 uM, primary screen): −0.530 log 2 fold change
- Z.CTG ([3]; Dose 2.00 uM): −1.265
- Dose.FC.CTG ([3]; Dose 10.00 uM, primary screen): −0.519 log 2 fold change
- Z.CTG ([3]; Dose 10.00 uM): −1.240

SMILES: O=C1NC(=O)/C(=C/c2ccc(-c3ccc(F)cc3O)o2)S1 [AS-252424]
- Dose.FC.LYZ.NS [1, 4]: 0.070 log 2 fold change
- Z.LYZ.NS ([1]; primary screen, dose 0.08 uM): 0.609
- Dose.FC.LYZ.NS [1, 5]: −0.042 log 2 fold change
- Z.LYZ.NS ([1]; primary screen, dose 0.40 uM): −0.368
- Dose.FC.LYZ.NS [1, 6]: −0.080 log 2 fold change
- Z.LYZ.NS ([1]; primary screen, dose 2.00 uM): −0.695
- Dose.FC.LYZ.NS [1, 7]: −0.077 log 2 fold change
- Z.LYZ.NS ([1]; primary screen, dose 10.00 uM): −0.671
- Dose.FC.LYZ.S ([2]; dose 0.08 uM, ENR+CD 6 days): 0.072 log 2 fold change
- Dose.FC.LYZ.S ([2]; dose 0.40 uM, ENR+CD 6 days): −0.008 log 2 fold change
- Dose.FC.LYZ.S ([2]; dose 2.00 uM, ENR+CD 6 days): −0.074 log 2 fold change
- Dose.FC.LYZ.S ([2]; dose 10.00 uM, ENR+CD 6 days): −0.022 log 2 fold change
- Dose.FC.CTG [3, 4]: 0.139 log 2 fold change
- Z.CTG ([3]; primary screen, dose 0.08 uM): 0.333
- Dose.FC.CTG [3, 5]: −0.074 log 2 fold change
- Z.CTG ([3]; primary screen, dose 0.40 uM): −0.176
- Dose.FC.CTG [3, 6]: −0.359 log 2 fold change
- Z.CTG ([3]; primary screen, dose 2.00 uM): −0.858
- Dose.FC.CTG [3, 7]: −0.204 log 2 fold change
- Z.CTG ([3]; primary screen, dose 10.00 uM): −0.487

SMILES: CC(=O)c1cc([N+](=O)[O-])c(Sc2ccc(F)cc2F)s1 [P22077]
- Dose.FC.LYZ.NS ([1]; Dose 0.08 uM, primary screen): 0.039 log 2 fold change
- Z.LYZ.NS ([1]; Dose 0.08 uM): 0.338
- Dose.FC.LYZ.NS ([1]; Dose 0.40 uM, primary screen): −0.005 log 2 fold change
- Z.LYZ.NS ([1]; Dose 0.40 uM): −0.041
- Dose.FC.LYZ.NS ([1]; Dose 2.00 uM, primary screen): 0.028 log 2 fold change
- Z.LYZ.NS ([1]; Dose 2.00 uM): 0.248
- Dose.FC.LYZ.NS ([1]; Dose 10.00 uM, primary screen): −0.056 log 2 fold change
- Z.LYZ.NS ([1]; Dose 10.00 uM): −0.487
- Dose.FC.LYZ.S ([2]; Dose 0.08 uM): −0.182 log 2 fold change
- Dose.FC.LYZ.S ([2]; Dose 0.40 uM): 0.065 log 2 fold change
- Dose.FC.LYZ.S ([2]; Dose 2.00 uM): −0.007 log 2 fold change
- Dose.FC.LYZ.S ([2]; Dose 10.00 uM): −0.063 log 2 fold change
- Dose.FC.CTG ([3]; Dose 0.08 uM, primary screen): −0.216 log 2 fold change
- Z.CTG ([3]; Dose 0.08 uM): −0.516
- Dose.FC.CTG ([3]; Dose 0.40 uM, primary screen): 0.049 log 2 fold change
- Z.CTG ([3]; Dose 0.40 uM): 0.117
- Dose.FC.CTG ([3]; Dose 2.00 uM, primary screen): −0.134 log 2 fold change
- Z.CTG ([3]; Dose 2.00 uM): −0.320
- Dose.FC.CTG ([3]; Dose 10.00 uM, primary screen): −0.130 log 2 fold change
- Z.CTG ([3]; Dose 10.00 uM): −0.311

SMILES: COc1ccnc2[nH]cc(C(=O)C(=O)N3CCN(C(=O)c4ccccc4)C[C@H]3C)c12 [BMS-378806]
- Dose.FC.LYZ.NS [1, 4]: 0.141 log 2 fold change
- Z.LYZ.NS ([1]; primary screen, dose 0.08 uM): 1.231
- Dose.FC.LYZ.NS [1, 5]: −0.007 log 2 fold change
- Z.LYZ.NS ([1]; primary screen, dose 0.40 uM): −0.061
- Dose.FC.LYZ.NS [1, 6]: −0.100 log 2 fold change
- Z.LYZ.NS ([1]; primary screen, dose 2.00 uM): −0.870
- Dose.FC.LYZ.NS [1, 7]: −0.227 log 2 fold change
- Z.LYZ.NS ([1]; primary screen, dose 10.00 uM): −1.977
- Dose.FC.LYZ.S ([2]; dose 0.08 uM, ENR+CD 6 days): 0.159 log 2 fold change
- Dose.FC.LYZ.S ([2]; dose 0.40 uM, ENR+CD 6 days): 0.007 log 2 fold change
- Dose.FC.LYZ.S ([2]; dose 2.00 uM, ENR+CD 6 days): −0.142 log 2 fold change
- Dose.FC.LYZ.S ([2]; dose 10.00 uM, ENR+CD 6 days): −0.322 log 2 fold change
- Dose.FC.CTG [3, 4]: 0.233 log 2 fold change
- Z.CTG ([3]; primary screen, dose 0.08 uM): 0.557
- Dose.FC.CTG [3, 5]: 0.102 log 2 fold change
- Z.CTG ([3]; primary screen, dose 0.40 uM): 0.243
- Dose.FC.CTG [3, 6]: −0.289 log 2 fold change
- Z.CTG ([3]; primary screen, dose 2.00 uM): −0.691
- Dose.FC.CTG [3, 7]: −1.155 log 2 fold change
- Z.CTG ([3]; primary screen, dose 10.00 uM): −2.758

SMILES: COc1cc2c(Nc3ccc(NC(=O)c4ccccc4)cc3)ncnc2cc1OCCCN1CCOCC1 [ZM 447439]
- Z.LYZ.NS (standard z score) ([1]; dose 0.08 uM): 0.896
- Dose.FC.LYZ.NS (log 2 fold change, basal lysozyme secretion) ([1]; dose 0.08 uM): 0.103
- Z.LYZ.NS (standard z score) ([1]; dose 0.40 uM): 0.932
- Dose.FC.LYZ.NS (log 2 fold change, basal lysozyme secretion) ([1]; dose 0.40 uM): 0.107
- Z.LYZ.NS (standard z score) ([1]; dose 2.00 uM): 0.456
- Dose.FC.LYZ.NS (log 2 fold change, basal lysozyme secretion) ([1]; dose 2.00 uM): 0.052
- Z.LYZ.NS (standard z score) ([1]; dose 10.00 uM): −0.695
- Dose.FC.LYZ.NS (log 2 fold change, basal lysozyme secretion) ([1]; dose 10.00 uM): −0.080
- Dose.FC.LYZ.S (log 2 fold change, carbachol-induced lysozyme secretion) ([2]; dose 0.08 uM): 0.171
- Dose.FC.LYZ.S (log 2 fold change, carbachol-induced lysozyme secretion) ([2]; dose 0.40 uM): 0.108
- Dose.FC.LYZ.S (log 2 fold change, carbachol-induced lysozyme secretion) ([2]; dose 2.00 uM): 0.074
- Dose.FC.LYZ.S (log 2 fold change, carbachol-induced lysozyme secretion) ([2]; dose 10.00 uM): −0.132
- Z.CTG (standard z score) ([3]; dose 0.08 uM): 1.222
- Dose.FC.CTG (log 2 fold change, ATP) ([3]; dose 0.08 uM): 0.512
- Z.CTG (standard z score) ([3]; dose 0.40 uM): 0.725
- Dose.FC.CTG (log 2 fold change, ATP) ([3]; dose 0.40 uM): 0.304
- Z.CTG (standard z score) ([3]; dose 2.00 uM): 0.552
- Dose.FC.CTG (log 2 fold change, ATP) ([3]; dose 2.00 uM): 0.231
- Z.CTG (standard z score) ([3]; dose 10.00 uM): −0.574
- Dose.FC.CTG (log 2 fold change, ATP) ([3]; dose 10.00 uM): −0.240
